Drawing on ChEMBL document CHEMBL1138130, “Synthesis and antibacterial activity of 3-O-acyl-6-O-carbamoyl erythromycin A derivatives” (2006), this text covers MIC for nine molecules.

Molecules are shown by their SMILES. ≈ marks a conversion by molar mass, not a printed value.

Common to all, as to assay type: functional
For assay [1], the system named is Streptococcus pneumoniae. Briefly: Antibacterial activity against erm(B) ribosomal methylase gene containing Streptococcus pneumoniae OC4051.
Assay [2] deals with Streptococcus pneumoniae. Briefly: Antibacterial activity against Mef(A) efflux pump containing Streptococcus pneumoniae OC4438.
The subject of another assay is Haemophilus influenzae. Put plainly: Antibacterial activity against Haemophilus influenzae OC4882.
Assay [3] concerns Streptococcus pneumoniae. Briefly: Antibacterial activity against Streptococcus pneumoniae OC9132.
A further assay has as its system Staphylococcus aureus. Briefly: Antibacterial activity against Staphylococcus aureus OC4172.

For `CC[C@H]1OC(=O)[C@H](C)[C@@H](OC(=O)N(C)Cc2cccnc2)[C@H](C)[C@@H](O[C@@H]2O[C@H](C)C[C@H](N(C)C)[C@H]2O)[C@](C)(OC(=O)NC/C=C/c2ccc(-c3ncccn3)cc2)C[C@@H](C)C(=O)[C@H](C)[C@H]2NC(=O)O[C@@]21C`, the MIC is 0.5 µg/mL (≈ 0.507 µM) against Streptococcus pneumoniae [1]; 0.06 µg/mL (≈ 0.0608 µM) against Streptococcus pneumoniae [2]; 4 µg/mL (≈ 4.06 µM) with Haemophilus influenzae; 0.03 µg/mL (≈ 0.0304 µM) against Streptococcus pneumoniae [3]; 0.25 µg/mL (≈ 0.254 µM) in the assay with Staphylococcus aureus.

`CC[C@H]1OC(=O)[C@H](C)[C@@H](OC(=O)CC2CC2)[C@H](C)[C@@H](O[C@@H]2O[C@H](C)C[C@H](N(C)C)[C@H]2O)[C@](C)(OC(=O)NC/C=C/c2ccc(-c3ncccn3)cc2)C[C@@H](C)C(=O)[C@H](C)[C@H]2NC(=O)O[C@@]21C`: the MIC in the assay with Streptococcus pneumoniae [1] was 0.12 µg/mL (≈ 0.13 µM); against Streptococcus pneumoniae [2], 0.12 µg/mL (≈ 0.13 µM); against Haemophilus influenzae, 16 µg/mL (≈ 17.4 µM); against Streptococcus pneumoniae [3], 0.06 µg/mL (≈ 0.0652 µM); in the assay on Staphylococcus aureus, 1 µg/mL (≈ 1.09 µM).

Take `CC[C@H]1OC(=O)[C@H](C)C(=O)[C@H](C)[C@@H](O[C@@H]2O[C@H](C)C[C@H](N(C)C)[C@H]2O)[C@](C)(OC)C[C@@H](C)C(=O)[C@H](C)[C@H]2N(CCCCn3cnc(-c4cccnc4)c3)C(=O)O[C@]12C` [TELITHROMYCIN]: the MIC is 0.06 µg/mL (≈ 0.0739 µM) against Streptococcus pneumoniae [1]; 0.25 µg/mL (≈ 0.308 µM) against Streptococcus pneumoniae [2]; 2 µg/mL (≈ 2.46 µM) in the assay with Haemophilus influenzae; 0.03 µg/mL (≈ 0.0369 µM) in the assay on Streptococcus pneumoniae [3]; 0.25 µg/mL (≈ 0.308 µM) with Staphylococcus aureus.

On to `CC[C@H]1OC(=O)[C@H](C)[C@@H](OC(=O)CCc2cccnc2)[C@H](C)[C@@H](O[C@@H]2O[C@H](C)C[C@H](N(C)C)[C@H]2O)[C@](C)(OC(=O)NC/C=C/c2ccc(-c3ncccn3)cc2)C[C@@H](C)C(=O)[C@H](C)[C@H]2NC(=O)O[C@@]21C`, for which the MIC in the assay with Streptococcus pneumoniae [1] was 2 µg/mL (≈ 2.06 µM); against Streptococcus pneumoniae [2], 0.06 µg/mL (≈ 0.0618 µM); in the assay with Haemophilus influenzae, 8 µg/mL (≈ 8.24 µM); with Streptococcus pneumoniae [3], 0.03 µg/mL (≈ 0.0309 µM); with Staphylococcus aureus, 0.25 µg/mL (≈ 0.257 µM).

Take `CC[C@H]1OC(=O)[C@H](C)[C@@H](OC(C)=O)[C@H](C)[C@@H](O[C@@H]2O[C@H](C)C[C@H](N(C)C)[C@H]2O)[C@](C)(OC(=O)NC/C=C/c2ccc(-c3ncccn3)cc2)C[C@@H](C)C(=O)[C@H](C)[C@H]2NC(=O)O[C@@]21C`: the MIC against Streptococcus pneumoniae [1] turned out to be 0.5 µg/mL (≈ 0.568 µM); against Streptococcus pneumoniae [2], 0.12 µg/mL (≈ 0.136 µM); against Haemophilus influenzae, 16 µg/mL (≈ 18.2 µM); against Streptococcus pneumoniae [3], 0.03 µg/mL (≈ 0.0341 µM); against Staphylococcus aureus, 1 µg/mL (≈ 1.14 µM).

Take `CC[C@H]1OC(=O)[C@H](C)[C@@H](OC(=O)c2cccnc2)[C@H](C)[C@@H](O[C@@H]2O[C@H](C)C[C@H](N(C)C)[C@H]2O)[C@](C)(OC(=O)NC/C=C/c2ccc(-c3ncccn3)cc2)C[C@@H](C)C(=O)[C@H](C)[C@H]2NC(=O)O[C@@]21C`: the MIC against Streptococcus pneumoniae [1] was determined as 4 µg/mL (≈ 4.24 µM); against Streptococcus pneumoniae [2], 0.25 µg/mL (≈ 0.265 µM); against Haemophilus influenzae, 16 µg/mL (≈ 17 µM); in the assay on Streptococcus pneumoniae [3] it was 0.06 µg/mL (≈ 0.0636 µM); with Staphylococcus aureus, 0.5 µg/mL (≈ 0.53 µM).

`CC[C@H]1OC(=O)[C@H](C)[C@@H](OC(=O)C(C)C)[C@H](C)[C@@H](O[C@@H]2O[C@H](C)C[C@H](N(C)C)[C@H]2O)[C@](C)(OC(=O)NC/C=C/C=C/c2cccnc2)C[C@@H](C)C(=O)[C@H](C)[C@H]2NC(=O)O[C@@]21C`: the MIC in the assay with Streptococcus pneumoniae [1] amounted to 0.25 µg/mL (≈ 0.292 µM); against Streptococcus pneumoniae [2] it was 0.12 µg/mL (≈ 0.14 µM); with Haemophilus influenzae, 4 µg/mL (≈ 4.67 µM); against Streptococcus pneumoniae [3], 0.06 µg/mL (≈ 0.07 µM); in the assay on Staphylococcus aureus, 0.5 µg/mL (≈ 0.583 µM).

Take `CC[C@H]1OC(=O)[C@H](C)[C@@H](OC(=O)Nc2ccc(F)cc2)[C@H](C)[C@@H](O[C@@H]2O[C@H](C)C[C@H](N(C)C)[C@H]2O)[C@](C)(OC(=O)NC/C=C/c2ccc(-c3ncccn3)cc2)C[C@@H](C)C(=O)[C@H](C)[C@H]2NC(=O)O[C@@]21C`: the MIC is 2 µg/mL (≈ 2.05 µM) against Streptococcus pneumoniae [1]; 0.25 µg/mL (≈ 0.256 µM) in the assay on Streptococcus pneumoniae [2]; 16 µg/mL (≈ 16.4 µM) against Haemophilus influenzae; 0.12 µg/mL (≈ 0.123 µM) against Streptococcus pneumoniae [3]; 1 µg/mL (≈ 1.03 µM) against Staphylococcus aureus.

Turning to `CC[C@H]1OC(=O)[C@H](C)[C@@H](OC(=O)Cc2ccccn2)[C@H](C)[C@@H](O[C@@H]2O[C@H](C)C[C@H](N(C)C)[C@H]2O)[C@](C)(OC(=O)NC/C=C/c2ccc(-c3ncccn3)cc2)C[C@@H](C)C(=O)[C@H](C)[C@H]2NC(=O)O[C@@]21C`, the MIC in the assay on Streptococcus pneumoniae [1] was found to be 0.12 µg/mL (≈ 0.125 µM); in the assay on Streptococcus pneumoniae [2], 0.12 µg/mL (≈ 0.125 µM); against Haemophilus influenzae, 4 µg/mL (≈ 4.18 µM); in the assay with Streptococcus pneumoniae [3] it was 0.03 µg/mL (≈ 0.0313 µM); in the assay on Staphylococcus aureus it was 0.25 µg/mL (≈ 0.261 µM).
